Measurements as given in ChEMBL document CHEMBL1148196, “Isoprenoids of the soft coral Sarcophyton glaucum: Nyalolide, a new biscembranoid, and other terpenoids” (2004).

Key:
Assay type in all cases: functional
HT-29 = test: Cytotoxicity against human HT29 cells
P388 = test: Cytotoxicity against mouse P388 cells
A549 = test: Cytotoxicity against human A549 cells
SK-MEL-28 = test: Cytotoxicity against human SK-MEL-28 cells

Measured: GI50

CC(C)=C1C=C2[C@@H](CC[C@@H]2C)[C@@H](C)CC1=O [GUAIACOPHINE]
10 µM: all assays above

COC(=O)/C1=C\CC/C(C)=C/[C@@H]2OC(=O)C(C)=C2C[C@H](OC(C)=O)/C(C)=C/CC1
10 µM: all assays above

COC(=O)[C@]12CC(=O)[C@H](C(C)C)CC(=O)[C@H](C)CCC[C@H](C)CC(=O)[C@H]1CC(C)=C1C[C@H](OC(C)=O)[C@](C)(O)[C@H]3CC[C@@](C)(O)[C@H](CC/C(C)=C/[C@@H]12)O3 [NYALOLIDE]
10 µM: all assays above
